Experimental findings from patent CN109096271A, “噻吩类化合物及其作为usp7抑制剂和抗肿瘤药物的应用” (China Pharmaceutical University, priority 2018, dated 2018) are described below.

Assay [1] deals with human colon cancer cells HCT-116 [人结肠癌细胞HCT-116]. In words: Antiproliferative activity on human colon cancer HCT-116 cells (MTT staining). It counts as cell-based. The note with it: HCT-116 wild type, 72 h.
Assay [2] addresses T1, full-length USP7 enzyme [全长USP7酶] (Homo sapiens, UniProt Q93009).
T1 construct: 全长USP7蛋白,Ub-AMC底物蛋白,实验缓冲液
In words: Inhibition of full-length USP7 enzyme in vitro (Ub-AMC method). It counts as biochemical. The note with it: half-maximal inhibitory concentration; full-length USP7, Ub-AMC substrate, 30 min preincubation at room temperature (25℃), 2 h reaction, pH 7.6; read-out: EC50 (the source's name).

Where only a bound is given, the exact number is not on record here.

T1 sequence (Q93009 whole entry): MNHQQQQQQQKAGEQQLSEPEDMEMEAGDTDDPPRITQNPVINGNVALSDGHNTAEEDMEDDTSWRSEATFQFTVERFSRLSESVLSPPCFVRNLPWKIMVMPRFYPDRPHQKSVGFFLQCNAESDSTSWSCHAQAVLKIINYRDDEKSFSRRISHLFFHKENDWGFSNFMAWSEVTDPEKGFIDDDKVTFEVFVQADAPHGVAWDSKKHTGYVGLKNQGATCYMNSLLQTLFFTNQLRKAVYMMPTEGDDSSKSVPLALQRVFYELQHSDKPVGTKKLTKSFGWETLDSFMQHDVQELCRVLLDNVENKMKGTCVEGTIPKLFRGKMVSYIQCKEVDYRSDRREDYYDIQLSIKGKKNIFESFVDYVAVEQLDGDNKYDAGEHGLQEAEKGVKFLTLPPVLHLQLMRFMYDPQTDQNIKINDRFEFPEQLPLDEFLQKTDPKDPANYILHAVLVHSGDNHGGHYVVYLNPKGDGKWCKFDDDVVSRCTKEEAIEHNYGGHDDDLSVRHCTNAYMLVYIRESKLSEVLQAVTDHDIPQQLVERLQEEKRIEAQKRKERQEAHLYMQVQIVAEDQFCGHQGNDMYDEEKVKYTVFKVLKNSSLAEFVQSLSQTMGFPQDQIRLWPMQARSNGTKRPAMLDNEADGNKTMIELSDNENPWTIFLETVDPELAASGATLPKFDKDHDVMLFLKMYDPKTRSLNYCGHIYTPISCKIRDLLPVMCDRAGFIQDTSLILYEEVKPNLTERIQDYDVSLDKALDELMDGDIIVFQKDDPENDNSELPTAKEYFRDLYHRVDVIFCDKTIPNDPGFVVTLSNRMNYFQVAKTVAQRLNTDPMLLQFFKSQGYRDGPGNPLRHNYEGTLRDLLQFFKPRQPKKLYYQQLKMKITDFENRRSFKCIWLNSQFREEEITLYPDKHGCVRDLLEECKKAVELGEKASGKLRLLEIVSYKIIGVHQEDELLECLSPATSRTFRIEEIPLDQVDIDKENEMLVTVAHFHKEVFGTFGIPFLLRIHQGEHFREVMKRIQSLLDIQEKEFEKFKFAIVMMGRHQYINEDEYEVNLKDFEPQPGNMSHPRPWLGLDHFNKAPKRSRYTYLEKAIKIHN

For `CC1CS(=O)(=O)c2cc(NC(=O)c3cc([N+](=O)[O-])c(Sc4c(Cl)cncc4Cl)o3)ccc21` (stereo not shown) [I-1, 5-((3,5-二氯吡啶-4-基)硫基)-N-(3-甲基-1,1-二氧代-2,3-二氢苯并[b]噻吩-6-基)-4-硝基呋喃-2-甲酰胺], the IC50 in assay [1] (Homo sapiens) and in assay [2] was more than 50 µM throughout.
Regarding `CC1CS(=O)(=O)c2cc(NC(=O)c3cc([N+](=O)[O-])c(Sc4c(Cl)cncc4Cl)[nH]3)ccc21` (stereo not shown) [I-2, 5-((3,5-二氯吡啶-4-基)硫基)-N-(3-甲基-1,1-二氧代-2,3-二氢苯并[b]噻吩-6-基)-4-硝基-1H-吡咯-2-甲酰胺], the IC50 in assay [1] (Homo sapiens) and in assay [2] was more than 50 µM each time.
In the case of `CC1CS(=O)(=O)c2cc(NC(=O)c3cc([N+](=O)[O-])c(Sc4c(Cl)cncc4Cl)n3C)ccc21` (stereo not shown) [I-3, 5-((3,5-二氯吡啶-4-基)硫基)-1-甲基-N-(3-甲基-1,1-二氧代-2,3-二氢苯并[b] 噻吩-6-基)-4-硝基-1H-吡咯-2-甲酰胺], the IC50 in assay [1] (Homo sapiens) and in assay [2] was more than 50 µM in each case.
`CN1CCC(Oc2ccc(NC(=O)c3cc([N+](=O)[O-])c(Sc4c(Cl)cncc4Cl)s3)cc2)C1` (stereo not shown) [I-4, 5-((3,5-二氯吡啶-4-基)硫基)-N-(4-((1-甲基吡咯烷-3-基)氧基)苯基) -4-硝基噻吩-2-甲酰胺]: the IC50 is 2.65 µM in assay [1] (Homo sapiens) and 4.45 µM in assay [2].
For the molecule `CN1CCC(Oc2ccc(NC(=O)c3cc([N+](=O)[O-])c(Sc4c(Cl)cncc4Cl)s3)cc2)CC1` [I-5, 5-((3,5-二氯吡啶-4-基)硫基)-N-(4-((1-甲基哌啶-4-基)氧基)苯基)-4-硝基噻吩-2-甲酰胺], the results for the IC50 in assay [1] (Homo sapiens) and in assay [2] were 2.39 µM and 2.85 µM, respectively.
`CN1CCCC(Oc2ccc(NC(=O)c3cc([N+](=O)[O-])c(Sc4c(Cl)cncc4Cl)s3)cc2)CC1` (stereo not shown) [I-6, 5-((3,5-二氯吡啶-4-基)硫基)-N-(4-((1-甲基吖庚烷-4-基)氧基)苯基)-4-硝基噻吩-2-甲酰胺]: the figures for the IC50 in assay [1] (Homo sapiens) and in assay [2] were 1.98 µM and 4.56 µM, respectively.
For `CN1CCCN(c2ccc(NC(=O)c3cc([N+](=O)[O-])c(Sc4c(Cl)cncc4Cl)s3)cc2)CC1` [I-7, 5-((3,5-二氯吡啶-4-基)硫基)-N-(4-(4-甲基-1,4-二氮杂环庚烷-1-基)苯基)-4-硝基噻吩-2-甲酰胺], the IC50 in assay [1] (Homo sapiens) stood at 3.48 µM; in assay [2], 6.9 µM.
As to `CS(=O)(=O)N1CCN(c2ccc(NC(=O)c3cc([N+](=O)[O-])c(Sc4c(Cl)cncc4Cl)s3)cc2)CC1` [I-9, 5-((3,5-二氯吡啶-4-基)硫基)-N-(4-(4-(甲基磺酰基)哌嗪-1-基)苯基) -4-硝基噻吩-2-甲酰胺], the IC50 in assay [1] (Homo sapiens) was 2.99 µM; in assay [2], 42.5 µM.
For `CN1CCN(C(=O)c2ccc(NC(=O)c3cc([N+](=O)[O-])c(Sc4c(Cl)cncc4Cl)s3)cc2)CC1` [I-10, 5-((3,5-二氯吡啶-4-基)硫基)-N-(4-(4-甲基哌嗪-1-羰基)苯基)-4-硝基噻吩-2-甲酰胺], the IC50 in assay [1] (Homo sapiens) was 3.36 µM; in assay [2], 2.96 µM.
Taken in the same sequence, the figures for `CN(C)CCN1CCN(C(=O)c2ccc(NC(=O)c3cc([N+](=O)[O-])c(Sc4c(Cl)cncc4Cl)s3)cc2)CC1` [I-11, 5-((3,5-二氯吡啶-4-基)硫基)-N-(4-(4-(2-(二甲基氨基)乙基)哌嗪-1-羰基)苯基)-4-硝基噻吩-2-甲酰胺] were 7.63 µM and 2.5 µM.
For `O=C(NCCN1CCOCC1)c1ccc(NC(=O)c2cc([N+](=O)[O-])c(Sc3c(Cl)cncc3Cl)s2)cc1` [I-12, ((3,5-二氯吡啶-4-基)硫基)-N-(4-((2-吗啉代乙基)氨基甲酰基)苯基)-4-硝基噻吩-2-甲酰胺], the IC50 in assay [1] (Homo sapiens) amounted to 1.82 µM; in assay [2], 1.18 µM.
With `CN1CCN(CC(=O)NCc2ccc(NC(=O)c3cc([N+](=O)[O-])c(Sc4c(Cl)cncc4Cl)s3)cc2)CC1` [I-14, ((3,5-二氯吡啶-4-基)硫基)-N-(4-((2-(4-甲基哌嗪-1-基)乙酰氨基)甲基) 苯基)-4-硝基噻吩-2-甲酰胺], the IC50 in assay [1] (Homo sapiens) came to 4.74 µM; in assay [2], 3.65 µM.
For `CN1CCN(CC(=O)Nc2ccc(NC(=O)c3cc([N+](=O)[O-])c(Sc4c(Cl)cncc4Cl)s3)cc2)CC1` [I-15, 5-((3,5-二氯吡啶-4-基)硫基)-N-(4-(2-(4-甲基哌嗪-1-基)乙酰氨基)苯 基)-4-硝基噻吩-2-甲酰胺], the results for the IC50 in assay [1] (Homo sapiens) and in assay [2] were 4.87 µM and 7.26 µM, respectively.
`O=C(NCCN1CCOCC1)c1cc([N+](=O)[O-])c(Sc2c(Cl)cncc2Cl)s1` [I-16, 5-((3,5-二氯吡啶-4-基)硫基)-N-(2-吗啉代乙基)-4-硝基噻吩-2-甲酰胺]: the IC50 stood at 4.82 µM in assay [1] (Homo sapiens) and 4.59 µM in assay [2].
Turning to `CN(C)CCN1CCN(C(=O)c2cc([N+](=O)[O-])c(Sc3c(Cl)cncc3Cl)s2)CC1` [I-17, (5-((3,5-二氯吡啶-4-基)硫基)-4-硝基噻吩-2-基)(4-(2-(二甲基氨基)乙 基)哌嗪-1-基)甲酮], the IC50 in assay [1] (Homo sapiens) is 8.53 µM; in assay [2], 6.59 µM.
Taken in the same sequence, the figures for `O=C(NCCc1ccc2c(c1)OCO2)c1cc([N+](=O)[O-])c(Sc2c(Cl)cncc2Cl)s1` [I-18, N-(2-(苯并[d][1,3]二氧杂环戊烯-5-基)乙基)-5-((3,5-二氯吡啶-4-基)硫基)-4-硝基噻吩-2-甲酰胺] were more than 50 µM and more than 50 µM.
Turning to “((3,5-二氯吡啶-4-基)硫基)-N-(4-((2-(4-甲基哌嗪-1-基)乙酰氨基)甲基) 苯基)-4-硝基噻吩-2-甲酰胺 [I-13]”, the results for the IC50 in assay [1] and in assay [2] were 3.26 µM and 3.71 µM, respectively.
